Results from paper PMC11124822, “Discovery and Anticancer Screening of Novel Oxindole-Based Derivative Bearing Pyridyl Group as Potent and Selective Dual FLT3/CDK2 Kinase Inhibitor” (Pharmaceuticals, 2024).

Experiments:
CCRF-CEM = assay: NCI-60 antiproliferative screen (SRB); format: cell-based, human; conditions: Homo sapiens; 10 µM single dose, 48 h; CCRF-CEM (Leukemia); read-out: Growth inhibition (%)
HL-60(TB) = assay: NCI-60 antiproliferative screen (SRB); format: cell-based, human; conditions: Homo sapiens; 10 µM single dose, 48 h; HL-60(TB) (Leukemia); read-out: Growth inhibition (%)
K-562 = assay: NCI-60 antiproliferative screen (SRB); format: cell-based, human; conditions: Homo sapiens, K562; 10 µM single dose, 48 h; K-562 (Leukemia); read-out: Growth inhibition (%)
MOLT-4 = assay: NCI-60 antiproliferative screen (SRB); format: cell-based; conditions: Homo sapiens; 10 µM single dose, 48 h; MOLT-4 (Leukemia); read-out: Growth inhibition (%)
RPMI-8226 = assay: NCI-60 antiproliferative screen (SRB); format: cell-based, human; conditions: Homo sapiens; 10 µM single dose, 48 h; RPMI-8226 (Leukemia); read-out: Growth inhibition (%)
A549/ATCC = assay: NCI-60 antiproliferative screen (SRB); format: cell-based, human; conditions: Homo sapiens; 10 µM single dose, 48 h; A549/ATCC (NSCLC); read-out: Growth inhibition (%)
NCI-H522 = assay: NCI-60 antiproliferative screen (SRB); format: cell-based, human; conditions: Homo sapiens; 10 µM single dose, 48 h; NCI-H522 (NSCLC); read-out: Growth inhibition (%)
COLO 205 = assay: NCI-60 antiproliferative screen (SRB); format: cell-based, human; conditions: Homo sapiens; 10 µM single dose, 48 h; COLO 205 (Colon); read-out: Growth inhibition (%)
HCT-116 = assay: NCI-60 antiproliferative screen (SRB); format: cell-based, human; conditions: Homo sapiens; 10 µM single dose, 48 h; HCT-116 (Colon); read-out: Growth inhibition (%)
HCT-15 = assay: NCI-60 antiproliferative screen (SRB); format: cell-based, human; conditions: Homo sapiens; 10 µM single dose, 48 h; HCT-15 (Colon); read-out: Growth inhibition (%)
KM12 = assay: NCI-60 antiproliferative screen (SRB); format: cell-based, human; conditions: Homo sapiens; 10 µM single dose, 48 h; KM12 (Colon); read-out: Growth inhibition (%)
SF-295 = assay: NCI-60 antiproliferative screen (SRB); format: cell-based, human; conditions: Homo sapiens; 10 µM single dose, 48 h; SF-295 (CNS); read-out: Growth inhibition (%)
SNB-19 = assay: NCI-60 antiproliferative screen (SRB); format: cell-based, human; conditions: Homo sapiens; 10 µM single dose, 48 h; SNB-19 (CNS); read-out: Growth inhibition (%)
M14 = assay: NCI-60 antiproliferative screen (SRB); format: cell-based, human; conditions: Homo sapiens; 10 µM single dose, 48 h; M14 (Melanoma); read-out: Growth inhibition (%)
SK-MEL-2 = assay: NCI-60 antiproliferative screen (SRB); format: cell-based, human; conditions: Homo sapiens; 10 µM single dose, 48 h; SK-MEL-2 (Melanoma); read-out: Growth inhibition (%)
SK-MEL-28 = assay: NCI-60 antiproliferative screen (SRB); format: cell-based, human; conditions: Homo sapiens; 10 µM single dose, 48 h; SK-MEL-28 (Melanoma); read-out: Growth inhibition (%)
UACC-257 = assay: NCI-60 antiproliferative screen (SRB); format: cell-based, human; conditions: Homo sapiens; 10 µM single dose, 48 h; UACC-257 (Melanoma); read-out: Growth inhibition (%)
UACC-62 = assay: NCI-60 antiproliferative screen (SRB); format: cell-based, human; conditions: Homo sapiens; 10 µM single dose, 48 h; UACC-62 (Melanoma); read-out: Growth inhibition (%)
OVCAR-3 = assay: NCI-60 antiproliferative screen (SRB); format: cell-based, human; conditions: Homo sapiens; 10 µM single dose, 48 h; OVCAR-3 (Ovarian); read-out: Growth inhibition (%)
OVCAR-5 = assay: NCI-60 antiproliferative screen (SRB); format: cell-based, human; conditions: Homo sapiens; 10 µM single dose, 48 h; OVCAR-5 (Ovarian); read-out: Growth inhibition (%)
OVCAR-8 = assay: NCI-60 antiproliferative screen (SRB); format: cell-based, human; conditions: Homo sapiens; 10 µM single dose, 48 h; OVCAR-8 (Ovarian); read-out: Growth inhibition (%)
NCI/ADR-RES = assay: NCI-60 antiproliferative screen (SRB); format: cell-based, human; conditions: Homo sapiens; 10 µM single dose, 48 h; NCI/ADR-RES (Ovarian); read-out: Growth inhibition (%)
SK-OV-3 = assay: NCI-60 antiproliferative screen (SRB); format: cell-based, human; conditions: Homo sapiens; 10 µM single dose, 48 h; SK-OV-3 (Ovarian); read-out: Growth inhibition (%)
A498 = assay: NCI-60 antiproliferative screen (SRB); format: cell-based, human; conditions: Homo sapiens; 10 µM single dose, 48 h; A498 (Renal); read-out: Growth inhibition (%)
CAKI-1 = assay: NCI-60 antiproliferative screen (SRB); format: cell-based, human; conditions: Homo sapiens; 10 µM single dose, 48 h; CAKI-1 (Renal); read-out: Growth inhibition (%)
SN12C = assay: NCI-60 antiproliferative screen (SRB); format: cell-based, human; conditions: Homo sapiens; 10 µM single dose, 48 h; SN12C (Renal); read-out: Growth inhibition (%)
UO-31 = assay: NCI-60 antiproliferative screen (SRB); format: cell-based, human; conditions: Homo sapiens; 10 µM single dose, 48 h; UO-31 (Renal); read-out: Growth inhibition (%)
PC-3 = assay: NCI-60 antiproliferative screen (SRB); format: cell-based, human; conditions: Homo sapiens; 10 µM single dose, 48 h; PC-3 (Prostate); read-out: Growth inhibition (%)
MDA-MB-468 = assay: NCI-60 antiproliferative screen (SRB); format: cell-based, human; conditions: Homo sapiens; 10 µM single dose, 48 h; MDA-MB-468 (Breast); read-out: Growth inhibition (%)
OVCAR-4 = assay: NCI-60 antiproliferative screen (SRB); conditions: Homo sapiens, OVCAR-4, 48 h, read-out: Growth inhibition (%)
Procedure: Anticancer activity was tested against 60 cancer cell lines (NCI-60) after 48h treatments with a single dosage of 10 μM of compounds by using sulforhodamine B assay [39] on the traditional 96-well platform. […] The human cancer cell lines of the NCI-60 panel are grown in RPMI 1640 medium supplemented with 5% FBS (fetal bovine serum) and 2 mM L-glutamine. […] For further analysis of promising compounds, five dose screens were performed against the NCI-60 panel. Drug treatments are performed in 5 doses using 10-fold or ½ log dose dilutions.

Structure (SMILES)	inhibition at 10 µM (CCRF-CEM) [%]	inhibition at 10 µM (HL-60(TB)) [%]	inhibition at 10 µM (K-562) [%]	inhibition at 10 µM (MOLT-4) [%]	inhibition at 10 µM (RPMI-8226) [%]	inhibition at 10 µM (A549/ATCC) [%]	inhibition at 10 µM (NCI-H522) [%]	inhibition at 10 µM (COLO 205) [%]	inhibition at 10 µM (HCT-116) [%]	inhibition at 10 µM (HCT-15) [%]	inhibition at 10 µM (KM12) [%]	inhibition at 10 µM (SF-295) [%]	inhibition at 10 µM (SNB-19) [%]	inhibition at 10 µM (M14) [%]	inhibition at 10 µM (SK-MEL-2) [%]	inhibition at 10 µM (SK-MEL-28) [%]	inhibition at 10 µM (UACC-257) [%]	inhibition at 10 µM (UACC-62) [%]	inhibition at 10 µM (OVCAR-3) [%]	inhibition at 10 µM (OVCAR-5) [%]	other results
O=C1Nc2ccccc2C1=Cc1ccc(OCc2ccncc2)cc1 (mixture of isomers) [Compound 5m, (E/Z)-3-[4-(Pyridin-4-ylmethoxy)benzylidene] indolin-2-one]	40.5	55.3	62.7	78.5	71.5	34.5	32.7	38.3	40.5	62.3	66.3	58.3	43.1	23.7	27.2	-4.73	35.8	31.1	21.5	-33.2	inhibition at 10 µM (OVCAR-8): 35%; inhibition at 10 µM (NCI/ADR-RES): 61.8%; inhibition at 10 µM (SK-OV-3): 9.38%; inhibition at 10 µM (A498): 2.17%; inhibition at 10 µM (CAKI-1): 45.6%; inhibition at 10 µM (SN12C): 21.4%; inhibition at 10 µM (UO-31): 44.7%; inhibition at 10 µM (PC-3): 46%; inhibition at 10 µM (MDA-MB-468): 91.1%; melting point: 238 to 240 °C; inhibition at 10 µM (OVCAR-4): 42.7%
O=C1Nc2ccc(F)cc2C1=Cc1ccc(OCc2ccncc2)cc1 (mixture of isomers) [Compound 5n, (E/Z)-5-Fluoro-3-[4-(pyridin-4-ylmethoxy)benzylidene] indolin-2-one]	40.6	57.8	79.3	76.7	64.5	29.8	82	22.1	56.1	78.8	69.8	51.7	60.5	32.5	28.1	-9.39	23.4	28.4	39.2	-27.6	inhibition at 10 µM (OVCAR-8): 56.2%; inhibition at 10 µM (NCI/ADR-RES): 74.2%; inhibition at 10 µM (SK-OV-3): 13.7%; inhibition at 10 µM (A498): 12.9%; inhibition at 10 µM (CAKI-1): 62.3%; inhibition at 10 µM (SN12C): 41.3%; inhibition at 10 µM (UO-31): 54.8%; inhibition at 10 µM (PC-3): 47.4%; inhibition at 10 µM (MDA-MB-468): 61.8%; melting point: 233 to 235 °C; inhibition at 10 µM (OVCAR-4): 43.4%
O=C1Nc2ccc(Cl)cc2C1=Cc1ccc(OCc2ccncc2)cc1 (mixture of isomers) [Compound 5o, (E/Z)-5-Chloro-3-[4-(pyridin-4-ylmethoxy)benzylidene] indolin-2-one]	53.9	66.5	72.5	81.2	70.5	39.9	86	19.2	60.5	79.1	60.6	44.2	73.8	33	4.23	14.5	23.7	37.6	67.4	-14.4	inhibition at 10 µM (OVCAR-8): 61.5%; inhibition at 10 µM (NCI/ADR-RES): 67.6%; inhibition at 10 µM (SK-OV-3): 11.4%; inhibition at 10 µM (A498): 1.01%; inhibition at 10 µM (CAKI-1): 38.7%; inhibition at 10 µM (SN12C): 34.4%; inhibition at 10 µM (UO-31): 51.1%; inhibition at 10 µM (PC-3): 52.4%; inhibition at 10 µM (MDA-MB-468): 44.9%; melting point: 238 to 240 °C; inhibition at 10 µM (OVCAR-4): 47.3%
O=C1Nc2cc(Cl)ccc2C1=Cc1ccc(OCc2ccncc2)cc1 (mixture of isomers) [Compound 5p, (E/Z)-6-Chloro-3-[4-(pyridin-4-ylmethoxy)benzylidene]indolin-2-one]	34.4	52.4	59.1	79	74.9	27.9	45.2	39.7	61.5	76.9	47.8	32.2	28.7	16.9	27.6	-10.9	17.2	34.7	53	-29.4	inhibition at 10 µM (OVCAR-8): 61.3%; inhibition at 10 µM (NCI/ADR-RES): 59.3%; inhibition at 10 µM (SK-OV-3): 15.5%; inhibition at 10 µM (A498): -1.39%; inhibition at 10 µM (CAKI-1): 52.8%; inhibition at 10 µM (SN12C): 34.6%; inhibition at 10 µM (UO-31): 49%; inhibition at 10 µM (PC-3): 45%; inhibition at 10 µM (MDA-MB-468): 65.6%; melting point: 233 to 235 °C; inhibition at 10 µM (OVCAR-4): 31.8%
